Measurements reported in paper PMC11898650, “Morpholine-Substituted Tetrahydroquinoline Derivatives as Potential mTOR Inhibitors: Synthesis, Computational Insights, and Cellular Analysis” (Cancers, 2025).

Experiments:
[1] = tested on: lung cancer (A-549) cell line; assay: MTT antiproliferative assay, A549; assay type: cell-based, human; conditions: 48 h; for IC50: Homo sapiens
Experimental: (§1) To evaluate the antiproliferative activity of the synthesized tetrahydroquinoline derivatives, three distinct human cancer cell lines were selected: breast cancer (MCF-7), lung cancer (A-549), and triple-negative breast cancer (MDA-MB-231). Furthermore, the synthesized compounds were tested on the VERO cell line to assess their potential toxicity. The VERO cell line, commonly derived from the kidney of an adult African green monkey, is widely used for toxicity studies. To evaluate the toxicity of the synthesized compounds, this cell line was utilized in the present study. The VERO cells were cultured using […] medium. The F-12 Ham’s medium was used to cultivate the lung cancer (A-549) cell lines. DMEM was used to cultivate the cell lines for breast cancer (MCF-7) and triple-negative breast cancer (MDA-MB-231). Because it feeds the cell line, 5% fatal bovine serum (FBS) was used to make the whole medium. To further protect the cell line from contamination, 0.5% pen–strep (penicillin + streptomycin) was added to all the mediums. All of these cell lines were cultivated in sterile, vented T-75 and/or T-25 flasks that were kept at 37 °C and supplied with 5% CO2. All of the compounds’ stock solutions were prepared in DMSO, and dilutions were made in the appropriate media so that the 96-well plates’ final DMSO content was not greater than 0.1%. First, each drug was tested in triplicate against every cell line at a 25 µM dose. […] On the first day, 1 × 10^4 cells were planted, and 24 h later, the chemicals were added. The MTT dye was added after the compounds and cells had been cultured for 48 h. After four hours, the MTT dye was taken out of the wells. Each well received 100 µL of DMSO to dissolve the formazan crystals that had formed as a result of the living cells, and absorbance at 570 nm was measured.

[2] = tested on: breast cancer (MCF-7) cell line; assay: MTT antiproliferative assay, MCF-7; assay type: cell-based; conditions: Homo sapiens, MCF7, 48 h
Experimental: as §1

[3] = tested on: triple-negative breast cancer (MDA-MB-231) cell line; assay: MTT antiproliferative assay, MDA-MB-231; assay type: cell-based, human; conditions: 48 h; for IC50: Homo sapiens
Experimental: as §1

VERO cell line = assay: MTT toxicity assay, VERO; assay type: cell-based, African green monkey; conditions: Chlorocebus sabaeus, 48 h, VERO normal cells
Experimental: as §1

A549 lung cancer cells = assay: Annexin V-FITC/PI apoptosis assay by flow cytometry; assay type: cell-based, human; conditions: 48 h
Experimental: A549 lung cancer cells were seeded in six-well plates and cultured in F-12 Ham’s medium supplemented with 5% FBS, 0.5% penicillin–streptomycin, and maintained in a 5% CO2 atmosphere at 37 °C for 24 h. […] Each condition was maintained in duplicate, with DMSO serving as the vehicle control, while 5-fluorouracil and Everolimus were used as positive controls. The treated cells, along with the DMSO control group, were incubated for 48 h. After incubation, the media were removed, and 1 mL of trypsin was added to each well for approximately one minute, followed by neutralization with 4 mL of fresh medium. Subsequent steps were carried out following the protocol of the Annexin V-FITC apoptosis detection kit (Ref No: BMS500FI, Lot No: 264043; Invitrogen, Waltham, MA, USA). The contents of each well were collected and transferred to centrifuge tubes, followed by centrifugation at 1000 RPM for 8 min. After removing the supernatant, the cell pellets were washed with PBS and subjected to another centrifugation step. The pellets were then resuspended in 1 mL of 1× binding buffer from the Annexin V-FITC apoptosis detection kit and incubated in the dark for 15–20 min. Subsequently, 500 µL of this cell suspension was transferred to individual plastic flow cytometry tubes. Each tube was supplemented with 10 µL of propidium iodide (PI) and 5 µL of Annexin V-FITC conjugate. The tubes were then incubated in the dark for 10 min before analyzing cell apoptosis using flow cytometry.

| SMILES | A549 (IC50 µM) [1] | IC50 [1] [µM] | IC50 [2] [µM] | MDA-MB-231 (IC50 µM) [3] | IC50 [3] [µM] | IC50 (VERO cell line) [µM] | apoptosis (early and last phase combined) (A549 lung cancer cells; A549, 3 µM) [%] | apoptosis (early and last phase combined) (A549 lung cancer cells; A549, 6 µM) [%] | Necrosis (A549 lung cancer cells; A549, 3 µM) [%] | Early Apoptosis (A549 lung cancer cells; A549, 6 µM) [%] | Late Apoptosis (A549 lung cancer cells; A549, 6 µM) [%] | Necrosis (A549 lung cancer cells; A549, 6 µM) [%] |
| --- | --- | --- | --- | --- | --- | --- | --- | --- | --- | --- | --- | --- |
| O=C(Nc1ccc2c(c1)N(C(=O)N1CCCCC1)CCC2)c1cc(F)cc(F)c1 [Compound 10f, 3,5-Difluoro-N-(1-(piperidine-1-carbonyl)-1,2,3,4-tetrahydroquinolin-7-yl)benzamide] | no activity | > 25 | 4.47 ± 0.013 | no activity | > 25 | > 25 |  |  |  |  |  |  |
| O=C(Nc1ccc2c(c1)N(C(=O)N1CCCCC1)CCC2)c1cc(C(F)(F)F)cc(C(F)(F)F)c1 [Compound 10h, N-(1-(Piperidine-1-carbonyl)-1,2,3,4-tetrahydroquinolin-7-yl)-3,5 bis(trifluoromethyl)benzamide] |  | 3.36 ± 0.71 | 0.087 ± 0.007 |  | 1.29 ± 0.032 | > 25 |  |  |  |  |  |  |
| O=C(Nc1ccc2c(c1)N(C(=O)N1CCCCC1)CCC2)c1cc(F)cc(C(F)(F)F)c1 [Compound 10g, 3-Fluoro-N-(1-(piperidine-1-carbonyl)-1,2,3,4-tetrahydroquinolin-7-yl)-5-(trifluoromethyl)benzamide] |  | 0.68 ± 0.13 | 2.5 ± 0.16 |  | > 25 | > 25 |  |  |  |  |  |  |
| O=C(Nc1ccc2c(c1)N(C(=O)C1CCCCC1)CCC2)c1ccc(OC(F)(F)F)cc1 [Compound 10b, N-(1-(Cyclohexanecarbonyl)-1,2,3,4-tetrahydroquinolin-7-yl)-4-(trifluoromethoxy)benzamide] |  | 4.72 ± 0.11 | > 25 |  | 6.37 ± 0.19 | 9.82 ± 0.08 |  |  |  |  |  |  |
| O=C(Nc1ccc2c(c1)N(C(=O)C1CCOCC1)CCC2)c1ccc(OC(F)(F)F)cc1 [Compound 10a, N-(1-(Tetrahydro-2H-pyran-4-carbonyl)-1,2,3,4-tetrahydroquinolin-7-yl)-4-(trifluoromethoxy)benzamide] |  | 1.06 ± 0.02 | 4.34 ± 0.12 |  | 8.16 ± 0.33 | > 25 |  |  |  |  |  |  |
| CO[C@H]1C[C@@H]2CC[C@@H](C)[C@@](O)(O2)C(=O)C(=O)N2CCCC[C@H]2C(=O)O[C@H]([C@H](C)C[C@@H]2CC[C@@H](OCCO)[C@H](OC)C2)CC(=O)[C@H](C)/C=C(\C)[C@@H](O)[C@@H](OC)C(=O)[C@H](C)C[C@H](C)/C=C/C=C/C=C/1C [Everolimus, reference compound] |  | 0.09 ± 0.01 | 5.86 ± 0.07 |  | 7.76 ± 0.37 | > 25 |  |  |  |  |  |  |
| O=C(Nc1ccc2c(c1)N(C(=O)N1CCOCC1)CCC2)c1cc(F)cc(C(F)(F)F)c1 [Compound 10d, 3-Fluoro-N-(1-(morpholine-4-carbonyl)-1,2,3,4-tetrahydroquinolin-7-yl)-5-(trifluoromethyl)benzamide] |  | 0.062 ± 0.01 | 0.58 ± 0.11 |  | 1.003 ± 0.008 | > 25 | 29.35 | 77.66 |  |  |  |  |
| O=c1[nH]cc(F)c(=O)[nH]1 [Compound 5-FU, 5-fluorouracil, reference compound] |  | 0.28 ± 0.008 | 0.72 ± 0.03 |  | 3.39 ± 0.37 | > 25 |  |  |  |  |  |  |
| O=C(Nc1ccc2c(c1)N(C(=O)N1CCOCC1)CCC2)c1cc(C(F)(F)F)cc(C(F)(F)F)c1 [Compound 10e, N-(1-(Morpholine-4-carbonyl)-1,2,3,4-tetrahydroquinolin-7-yl)-3,5-bis(trifluoromethyl)benzamide] |  | 0.033 ± 0.003 | 2.89 ± 0.013 |  | 0.63 ± 0.02 | 8.86 ± 0.03 | 75.7 |  | 0.05 | 70.00 | 20.37 | 0.01 |
